This is an account of results in patent US20030022253A1, “Method for identifying, isolating and producing neuroactive binding agents and binding agents derived thereby” (Nyxis Neurotherapies, Inc., priority 2001, published 2003).

One may read the pIC50 as the IC50 on a negative log10 scale, so that one unit is a factor of ten.

pIC50: −log10 of the molar value. Like-named read-outs stand apart in the source and are kept apart here.

Test [1] deals with T1, NMDA receptor-ion channel complex.
T1 construct: other: antagonist alone, no glutamate or glycine added; other: combined addition, 50 μM of each
The test is described as follows: [3H]TCP binding assay on washed hippocampal membranes. More on the design: species or system rat. Particulars: antagonist alone, no glutamate or glycine added; read-out: IC50, inhibition of [3H]TCP binding. How it is done:
(§1) Tissue Preparation. Crude synaptic membranes were prepared from rat Hippocampi or from rat forebrains (male Sprague-Dawley rats) and washed extensively to remove endogenous amino acids, as previously described by Ransom and Stec ((1988) Brain Res. 444, 25-32). […] Membranes were then pelleted by centrifugation at 48,000 g for 20 min. This step was repeated twice and the homogenate was stored at −70′ in the same buffer. Before each use, homogenates were thawed at room temperature, pelleted, and washed four additional times. […] The final washed membranes were resuspended at concentrations of 2-3 mg/ml in either 5 mM Tris-HCl buffer or 5 mM Tris-acetate buffer.
(§2) TCP binding assay. Measurements of specific [^3H]TCP binding were performed as described previously (Haring R., Kloog Y., Harshak-Felixbrodt N., and Sokolovsky M. (1987) Biochem. Biophys. Res. Commun. 142, 501-510). Final reaction of mixtures consisted of 50-100 μg of membrane protein in 200 μl of 5 mM Tris-HCl buffer and contained either [^3H]TCP, or [^3H]TCP and the appropriate concentration of NMDA-receptor ligands or MAbs. Reactions were initiated by the addition of the membranes to the reaction mixtures. Unless otherwise indicated, binding assays were performed under nonequilibrium conditions at 25° C. for 1 hr. Nonspecific binding was determined in parallel samples containing 100 μM unlabeled PCP. Binding reactions were terminated by filtration on Whatman GF/B glass filters that had been pretreated with 0.1% polyethyleneimine for 1 hr. The dissociation of [^3H]TCP from its membrane-binding site was measured after equilibrating the receptors with 20 nM [^3H]TCP for 120 min. The dissociation reaction was initiated by the addition of 100 μM unlabeled PCP in the presence and absence of NMDA-receptor ligands or MAb. Reactions were terminated immediately (zero time) and after incubation for the additional periods of time indicated.

For test [2], the target named is NMDA receptor-ion channel complex. The description is as above. More on the design: species or system rat. How it is done: as §1, §2
Test [3] has as its target T2, NMDA receptor-ion channel complex (Rattus norvegicus, UniProt P35439).
T2 construct: other: in the presence of 25 μM of B6B21; other: agonist alone
The test is described as above. Here is the method: as §1, §2

The target in test [4] is T3, glycine-binding site of the NMDA-receptor complex (Rattus norvegicus, UniProt P35439).
T3 construct: Crude synaptic membranes were prepared from rat Hippocampi or from rat forebrains (male Sprague-Dawley rats); from tissue; host or cells: rat hippocampal or forebrain crude synaptic membranes (male Sprague-Dawley), Triton X-100 treated
The test is described as follows: [3H]glycine binding assay. Particulars: Scatchard analysis, no antibody. Here is the method: as §1

Test [5] addresses T4, NMDA receptor complex (Rattus norvegicus, UniProt P35439).
T4 construct: Crude synaptic membranes were prepared using rat hippocampal tissue (male Sprague-Dawley rats); from tissue; host or cells: rat hippocampal crude synaptic membranes (male Sprague-Dawley)
The test is described as follows: Modified glycine site-dependent [3H]MK-801 binding assay with 7-chlorokynurenic acid. The note with it: at 10^−6 M.

Test [6] concerns learning. The note with it: rats, IV doses up to 2 mg/kg; cited from earlier work.
Test [7] has as its system learning. Particulars: rats, IV doses up to 2 mg/kg; cited from earlier work. This is another data set of the same source.

T2 sequence (Q00959 23-1464, other chains not shown): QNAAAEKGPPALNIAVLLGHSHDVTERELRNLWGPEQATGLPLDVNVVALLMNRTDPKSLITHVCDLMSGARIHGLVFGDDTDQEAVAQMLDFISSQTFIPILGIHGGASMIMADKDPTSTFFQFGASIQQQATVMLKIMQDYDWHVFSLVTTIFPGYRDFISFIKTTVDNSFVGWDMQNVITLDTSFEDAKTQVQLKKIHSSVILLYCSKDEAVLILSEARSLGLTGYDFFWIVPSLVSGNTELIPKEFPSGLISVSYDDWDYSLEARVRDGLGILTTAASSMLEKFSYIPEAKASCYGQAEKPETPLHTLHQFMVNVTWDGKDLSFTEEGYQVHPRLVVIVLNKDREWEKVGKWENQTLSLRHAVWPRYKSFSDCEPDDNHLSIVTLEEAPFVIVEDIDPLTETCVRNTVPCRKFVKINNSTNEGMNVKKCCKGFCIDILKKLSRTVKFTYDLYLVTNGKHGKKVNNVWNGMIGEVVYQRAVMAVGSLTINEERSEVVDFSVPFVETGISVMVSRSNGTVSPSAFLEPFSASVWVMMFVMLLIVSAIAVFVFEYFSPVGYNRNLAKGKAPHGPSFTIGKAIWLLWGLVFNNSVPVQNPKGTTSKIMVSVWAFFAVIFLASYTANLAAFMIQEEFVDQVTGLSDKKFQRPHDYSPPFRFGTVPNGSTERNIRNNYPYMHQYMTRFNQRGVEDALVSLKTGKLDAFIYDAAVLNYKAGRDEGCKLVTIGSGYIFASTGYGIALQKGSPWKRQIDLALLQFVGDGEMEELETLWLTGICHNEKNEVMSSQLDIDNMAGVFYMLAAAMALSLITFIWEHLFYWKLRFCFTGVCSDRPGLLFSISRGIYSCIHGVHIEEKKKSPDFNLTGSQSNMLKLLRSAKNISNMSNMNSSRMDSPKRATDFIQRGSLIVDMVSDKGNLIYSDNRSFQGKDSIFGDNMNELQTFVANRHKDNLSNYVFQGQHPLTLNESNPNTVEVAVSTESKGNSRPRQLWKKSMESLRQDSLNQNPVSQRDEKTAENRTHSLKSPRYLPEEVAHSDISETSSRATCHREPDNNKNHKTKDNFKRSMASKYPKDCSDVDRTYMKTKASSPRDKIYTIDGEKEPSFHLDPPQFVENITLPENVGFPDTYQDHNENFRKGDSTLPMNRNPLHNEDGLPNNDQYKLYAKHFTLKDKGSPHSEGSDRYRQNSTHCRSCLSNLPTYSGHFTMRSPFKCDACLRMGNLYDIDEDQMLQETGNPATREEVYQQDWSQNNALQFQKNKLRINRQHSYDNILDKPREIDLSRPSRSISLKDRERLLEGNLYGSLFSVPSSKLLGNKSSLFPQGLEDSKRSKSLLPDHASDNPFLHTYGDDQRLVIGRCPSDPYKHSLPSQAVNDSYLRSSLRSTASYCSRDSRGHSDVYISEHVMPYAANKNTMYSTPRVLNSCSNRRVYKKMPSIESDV
T2 sequence (Q00960 27-1482, other chains not shown, further chain): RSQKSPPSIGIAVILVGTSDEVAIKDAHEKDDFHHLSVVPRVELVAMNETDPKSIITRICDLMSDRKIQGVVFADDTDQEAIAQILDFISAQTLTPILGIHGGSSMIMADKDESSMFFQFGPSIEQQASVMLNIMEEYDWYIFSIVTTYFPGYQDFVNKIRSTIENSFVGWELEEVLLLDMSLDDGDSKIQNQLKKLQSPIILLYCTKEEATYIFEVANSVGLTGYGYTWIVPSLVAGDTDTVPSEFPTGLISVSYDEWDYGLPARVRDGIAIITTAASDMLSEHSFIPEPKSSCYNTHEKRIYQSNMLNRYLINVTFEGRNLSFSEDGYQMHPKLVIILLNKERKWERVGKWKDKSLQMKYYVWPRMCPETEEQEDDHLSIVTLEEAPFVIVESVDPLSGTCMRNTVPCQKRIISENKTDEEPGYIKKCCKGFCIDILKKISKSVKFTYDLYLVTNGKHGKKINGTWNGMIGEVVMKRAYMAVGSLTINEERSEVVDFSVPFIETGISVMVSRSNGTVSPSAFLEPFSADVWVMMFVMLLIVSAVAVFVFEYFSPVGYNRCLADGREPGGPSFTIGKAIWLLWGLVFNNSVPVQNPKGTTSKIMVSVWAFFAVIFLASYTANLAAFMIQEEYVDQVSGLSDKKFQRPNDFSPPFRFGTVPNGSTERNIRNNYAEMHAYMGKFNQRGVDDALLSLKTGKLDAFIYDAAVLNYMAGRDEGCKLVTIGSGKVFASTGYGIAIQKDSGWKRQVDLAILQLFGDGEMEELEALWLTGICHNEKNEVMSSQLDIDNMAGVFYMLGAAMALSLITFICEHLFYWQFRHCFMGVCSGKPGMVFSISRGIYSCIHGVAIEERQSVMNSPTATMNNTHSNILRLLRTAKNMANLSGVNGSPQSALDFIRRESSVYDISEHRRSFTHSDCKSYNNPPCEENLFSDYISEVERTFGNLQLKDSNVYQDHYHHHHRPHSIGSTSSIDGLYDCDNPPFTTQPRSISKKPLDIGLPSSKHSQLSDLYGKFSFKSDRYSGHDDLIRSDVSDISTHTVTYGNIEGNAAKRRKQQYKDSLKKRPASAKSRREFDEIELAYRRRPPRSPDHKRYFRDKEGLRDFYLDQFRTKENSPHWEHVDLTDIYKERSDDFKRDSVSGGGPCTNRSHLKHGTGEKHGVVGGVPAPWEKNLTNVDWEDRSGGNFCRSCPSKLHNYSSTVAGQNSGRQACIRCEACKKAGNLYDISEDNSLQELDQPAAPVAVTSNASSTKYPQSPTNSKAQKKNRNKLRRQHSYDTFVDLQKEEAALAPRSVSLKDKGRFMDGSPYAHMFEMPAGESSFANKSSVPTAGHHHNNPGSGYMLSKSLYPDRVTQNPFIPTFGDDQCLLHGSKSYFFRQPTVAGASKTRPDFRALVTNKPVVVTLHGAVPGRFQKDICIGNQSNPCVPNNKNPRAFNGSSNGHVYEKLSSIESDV

Consider `O=C(O)c1cc(O)c2ccc(Cl)cc2n1` [7-Cl KYNA, 7-chlorokynurenic acid], for which the pIC50 in test [1] is 5.22; in test [2] (in the presence of B6B21 (40 μg/ml), read-out: IC50, inhibition of [3H]TCP binding) it was 4.22.
For the compound `N[C@H](CCCP(=O)(O)O)C(=O)O` [D-AP5, D-(−)-2-amino-5-phosphonovaleric acid], the pIC50 in test [1] was 5.85; in test [3] (read-out: IC50, inhibition of [3H]TCP binding, in the presence of 50 μM glutamate), under 4.00.
Turning to `N[C@@H](CCC(=O)O)C(=O)O` [glutamate], in test [3], the “concentration giving maximal stimulation of specific [3H]TCP binding” value is over 10 µM. In addition, in test [3] (maximally stimulating concentration, non-equilibrium 1 h, 25° C., control 63), the “specific [3H]TCP binding” value was 132 fmol/mg of protein.
Consider `NCC(=O)O` [glycine], for which the “ability to abolish the inhibitory effect of D-AP5 on [3H]TCP binding” value in test [2] (50 μM glycine or 40 μg/ml B6B21) is on record as “Neither glycine nor B6B21 could abolish”. Moreover, the “specific [3H]TCP binding” value is listed as 310 fmol/mg of protein in test [2] (added to maximally stimulating glutamate) and 155 fmol/mg of protein in test [2] (in the absence of added glutamate, glycine 50 μM, B6B21 25 μM). Further, the “potentiation of the glutamate effect on [3H]TCP binding” value in test [2] (co-addition at concentrations giving maximal effects) is on record as “potentiated the glutamate effect additively”. Moreover, in test [4], the “Bmax of [3H]glycine binding” value is 12.9 pmol/mg of protein.
On to “threonine-proline-proline-threonine [NT-13]”, for which, in test [5], the “[3H]MK-801 binding, % of control” value is reported as 130%. Moreover, in test [6], the “learning in the trace eyeblink paradigm” value is “statistically significant increase in learning”. Moreover, in test [7], the “learning in the Morris Water Maze” value was “statistically significant increase in learning”.
